# Results from patent US20230183193A1, “4-DIFLUOROMETHYL BENZOYL AMIDES WITH HERBICIDAL ACTION” (BAYER CROPSCIENCE AKTIENGESELLSCHAFT, priority 2017, published 2023).
# Experiments:
# [1] = system: Amaranthus retroflexus; assay: Post-emergence herbicidal action, AMARE; format: in vivo; details: 80 g/ha, Table D
# Outline: (§1)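 Greenhouse-grown weeds in sandy loam, treated at the one-leaf stage 2 to 3 weeks after sowing with WP or EC formulations sprayed as aqueous suspension/emulsion at 600 to […] water plus 0.2% wetting agent. Visual scoring after about 3 weeks versus untreated controls, 0% (like control) to 100% (plants dead).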
# [2] = system: Abutilon theophrasti; assay: Pre-emergence herbicidal action, ABUTH; format: in vivo; details: for Herbicidal efficacy against ABUTH: Table K; for herbicidal activity ABUTH: scored visually after 3 weeks vs untreated controls
# Outline: (§2)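 Percent herbicidal activity rated by eye 3 weeks after pre-emergence soil-surface application, compared with untreated pots. Seeds sat under sandy loam; sprays carried 0.2% wetting agent.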
# [3] = system: Cyperus serotinus; assay: Post-emergence herbicidal action, CYPES; format: in vivo; details: 5 g/ha
# Method: Seeds of monocotyledonous and dicotyledonous weed and crop plants are laid out in sandy loam soil in wood-fiber pots, covered with soil and cultivated in a greenhouse under good growth conditions. 2 to 3 weeks after sowing, the test plants are treated at the one-leaf stage. The compounds of the invention, formulated in the form of wettable powders (WP) or as emulsion concentrates (EC), are then sprayed onto the green parts of the plants in the form of an aqueous suspension or emulsion at a water application rate equating to […], with addition of 0.2% wetting agent. After the test plants have been left to stand in the greenhouse under optimal growth conditions for about 3 weeks, the action of the preparations is assessed visually in comparison to untreated controls (herbicidal action in percent (%): 100% activity=the plants have died, 0% activity=like control plants). […] At the same time, inventive compounds leave Gramineae crops such as barley, wheat, rye, millet/sorghum, corn or rice virtually undamaged when applied post-emergence, even at high active compound dosages. In addition, some substances are also harmless to dicotyledonous crops such as soya, cotton, oilseed rape, sugar beet or potatoes. […]
# [4] = system: ECHCG; assay: Post-emergence herbicidal action, ECHCG; format: in vivo; details: 80 g/ha, Table C
# Outline: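 Weed and crop plants grown in sandy loam in the greenhouse, treated at the one-leaf stage 2–3 weeks after sowing. Damage scored visually after about 3 weeks vs untreated controls (0% = control, 100% = dead).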
# [5] = system: Pharbitis purpureum; assay: Post-emergence herbicidal action, PHBPU; format: in vivo; details: 80 g/ha, Table D
# Outline: as §1
# [6] = system: Avena fatua; assay: Pre-emergence herbicidal action, AVEFA; format: in vivo; details: for herbicidal activity AVEFA: scored visually after 3 weeks vs untreated controls
# Outline: as §2
# [7] = system: Alopecurus myosuroides; assay: Pre-emergence herbicidal action, ALOMY; format: in vivo; details: for herbicidal activity ALOMY: scored visually after 3 weeks vs untreated controls
# Outline: as §2
# [8] = system: ECHCG; assay: Pre-emergence herbicidal action, ECHCG; format: in vivo, Echinochloa crus-galli
# [9] = system: Avena fatua; assay: Post-emergence herbicidal action, AVEFA; format: in vivo; details: for herbicidal activity AVEFA: 80 g/ha, Table C
# Outline: as §1
# [10] = system: Polygonum convolvulus; assay: Pre-emergence herbicidal action, POLCO; format: in vivo
# Outline: as §2
# [11] = system: Setaria viridis; assay: Pre-emergence herbicidal action, SETVI; format: in vivo; details: for herbicidal activity SETVI: scored visually after 3 weeks vs untreated controls
# Outline: as §2
# [12] = system: Matricaria inodora; assay: Pre-emergence herbicidal action, MATIN; format: in vivo; details: for Herbicidal efficacy against MATIN: Table K; for herbicidal activity MATIN: scored visually after 3 weeks vs untreated controls
# Outline: as §2
# [13] = system: Amaranthus retroflexus; assay: Pre-emergence herbicidal action, AMARE; format: in vivo; details: dosage 320 g/ha, scored visually after 3 weeks vs untreated controls
# Outline: as §2
# [14] = system: Alopecurus myosuroides; assay: Post-emergence herbicidal action, ALOMY; format: in vivo; details: for herbicidal activity ALOMY: 80 g/ha, Table C
# Outline: as §1
# [15] = system: Abutilon theophrasti; assay: Post-emergence herbicidal action, ABUTH; format: in vivo; details: 80 g/ha, Table D
# Outline: as §1
# [16] = system: Stellaria media; assay: Post-emergence herbicidal action, STEME; format: in vivo; details: for Herbicidal activity STEME: 80 g/ha, Table D
# Outline: as §1
# [17] = system: Cyperus serotinus; assay: Pre-emergence herbicidal action, CYPES; format: in vivo; details: for herbicidal activity CYPES: scored visually after 3 weeks vs untreated controls
# Outline: as §2
# [18] = system: Viola tricolor; assay: Post-emergence herbicidal action, VIOTR; format: in vivo; details: for herbicidal activity VIOTR: 80 g/ha, Table D
# Outline: as §1
# [19] = system: Viola tricolor; assay: Pre-emergence herbicidal action, VIOTR; format: in vivo; details: for herbicidal activity VIOTR: scored visually after 3 weeks vs untreated controls
# Outline: as §2
# [20] = system: Setaria viridis; assay: Post-emergence herbicidal action, SETVI; format: in vivo; details: for herbicidal activity SETVI: 80 g/ha, Table C
# Outline: as §1
# [21] = system: Stellaria media; assay: Pre-emergence herbicidal action, STEME; format: in vivo; details: dosage 320 g/ha, scored visually after 3 weeks vs untreated controls
# Outline: as §2
# [22] = system: LOLMU; assay: Pre-emergence herbicidal action, LOLMU; format: in vivo; details: Table L
# [23] = system: Veronica persica; assay: Post-emergence herbicidal action, VERPE; format: in vivo; details: Table M
# Method: (§3) Seeds of monocotyledonous and dicotyledonous weed and crop plants are laid out in sandy loam soil in wood-fiber pots, covered with soil and cultivated in a greenhouse under good growth conditions. 2 to 3 weeks after sowing, the test plants are treated at the one-leaf stage. The compounds of the invention, formulated in the form of wettable powders (WP) or as emulsion concentrates (EC), are then sprayed onto the green parts of the plants in the form of an aqueous suspension or emulsion at a water application rate equating to […], with addition of 0.2% wetting agent. After the test plants have been left to stand in the greenhouse under optimal growth conditions for about 3 weeks, the action of the preparations is assessed visually in comparison to untreated controls (herbicidal action in percent (%): 100% activity=the plants have died, 0% activity=like control plants). […] At the same time, inventive compounds leave Gramineae crops such as barley, wheat, rye, millet/sorghum, corn or rice virtually undamaged when applied post-emergence, even at high active compound dosages. In addition, some substances are also harmless to dicotyledonous crops such as soya, cotton, oilseed rape, sugar beet or potatoes. Some of the compounds according to the invention have high selectivity and are therefore suitable for controlling unwanted vegetation in agricultural crops by the post-emergence method. The data of Tables C and D below illustrate, in an exemplary manner, the […] herbicidal action of the compounds according to the invention, the herbicidal activity being stated in percent.
# (§4) For comparison, the herbicidal activity of numerous compounds according to the invention was tested with the structurally closest compounds known from the documents WO 2011/035874, WO 2012/028579 and WO 2012/126932, by the pre- and post-emergence method.
# [24] = system: Matricaria inodora; assay: Post-emergence herbicidal action, MATIN; format: in vivo; details: Table M
# Method: as §3, §4
compound,measurement,setting,value
Cc1c(C(=O)Nc2nnnn2C)ccc(C(F)F)c1[S+](C)[O-] (stereo not shown) [Example 1-2],herbicidal activity AMARE,[1],80%
same,Herbicidal efficacy against ABUTH,[2]; dosage 80 g/ha,100
same,Herbicidal efficacy against ABUTH,[2]; dosage 320 g/ha,100
same,herbicidal activity ABUTH,[2]; dosage 320 g/ha,100%
same,Herbicidal efficacy against CYPES,[3],50
same,Herbicidal activity ECHCG,[4],90%
same,Herbicidal activity PHBPU,[5],90%
same,Herbicidal efficacy against AVEFA,[6]; 20 g/ha,20
same,Herbicidal efficacy against AVEFA,[6]; 80 g/ha,70
same,Herbicidal efficacy against AVEFA,[6]; 320 g/ha,100
same,herbicidal activity AVEFA,[6]; dosage 320 g/ha,100%
same,Herbicidal efficacy against ALOMY,[7]; 20 g/ha,70
same,Herbicidal efficacy against ALOMY,[7]; 80 g/ha,90
same,Herbicidal efficacy against ALOMY,[7]; 320 g/ha,100
same,herbicidal activity ALOMY,[7]; dosage 320 g/ha,100%
same,Herbicidal efficacy against ECHCG,[8]; 20 g/ha,40
same,Herbicidal efficacy against ECHCG,[8]; 80 g/ha,100
same,Herbicidal efficacy against ECHCG,[8]; 320 g/ha,100
same,Herbicidal efficacy against AVEFA,[9]; 5 g/ha,70
same,Herbicidal efficacy against AVEFA,[9]; 20 g/ha,90
same,herbicidal activity AVEFA,[9],100%
same,Herbicidal efficacy against POLCO,"[10]; dosage 80 g/ha, Table K",70
same,Herbicidal efficacy against POLCO,"[10]; dosage 320 g/ha, Table K",80
same,Herbicidal efficacy against SETVI,[11]; 80 g/ha,90
same,Herbicidal efficacy against SETVI,[11]; 320 g/ha,100
same,herbicidal activity SETVI,[11]; dosage 320 g/ha,100%
same,Herbicidal efficacy against MATIN,[12]; dosage 20 g/ha,70
same,Herbicidal efficacy against MATIN,[12]; dosage 80 g/ha,100
same,Herbicidal efficacy against MATIN,[12]; dosage 320 g/ha,100
same,herbicidal activity MATIN,[12]; dosage 320 g/ha,100%
same,herbicidal activity AMARE,[13],100%
same,Herbicidal efficacy against ALOMY,[14]; 5 g/ha,60
same,Herbicidal efficacy against ALOMY,[14]; 20 g/ha,80
same,herbicidal activity ALOMY,[14],90%
same,herbicidal activity ABUTH,[15],80%
same,Herbicidal efficacy against STEME,[16]; 5 g/ha,90
same,Herbicidal efficacy against STEME,[16]; 20 g/ha,90
same,Herbicidal activity STEME,[16],100%
same,Herbicidal efficacy against CYPES,[17]; 20 g/ha,60
same,Herbicidal efficacy against CYPES,[17]; 80 g/ha,80
same,Herbicidal efficacy against CYPES,[17]; 320 g/ha,90
same,herbicidal activity CYPES,[17]; dosage 320 g/ha,90%
same,Herbicidal efficacy against VIOTR,[18]; 5 g/ha,100
same,Herbicidal efficacy against VIOTR,[18]; 20 g/ha,100
same,herbicidal activity VIOTR,[18],100%
same,Herbicidal efficacy against VIOTR,"[19]; dosage 20 g/ha, Table K",80
same,Herbicidal efficacy against VIOTR,"[19]; dosage 80 g/ha, Table K",100
same,Herbicidal efficacy against VIOTR,"[19]; dosage 320 g/ha, Table K",100
same,herbicidal activity VIOTR,[19]; dosage 320 g/ha,100%
same,Herbicidal efficacy against SETVI,[20]; 5 g/ha,90
same,Herbicidal efficacy against SETVI,[20]; 20 g/ha,90
same,herbicidal activity SETVI,[20],90%
same,Herbicidal activity STEME,[21],90%
Cc1nnc(NC(=O)c2ccc(C(F)F)c(S(C)(=O)=O)c2C)o1 [Example 7-3],herbicidal activity AMARE,[1],90%
same,herbicidal activity ABUTH,[2]; dosage 320 g/ha,100%
same,Herbicidal activity ECHCG,[4],90%
same,Herbicidal activity PHBPU,[5],90%
same,Herbicidal efficacy against AVEFA,"[6]; dosage 80 g/ha, Table L",90
same,Herbicidal efficacy against AVEFA,"[6]; dosage 320 g/ha, Table L",100
same,herbicidal activity AVEFA,[6]; dosage 320 g/ha,100%
same,Herbicidal efficacy against ALOMY,"[7]; dosage 80 g/ha, Table L",90
same,Herbicidal efficacy against ALOMY,"[7]; dosage 320 g/ha, Table L",100
same,herbicidal activity ALOMY,[7]; dosage 320 g/ha,100%
same,herbicidal activity AVEFA,[9],100%
same,Herbicidal efficacy against AVEFA,"[9]; dosage 20 g/ha, Table M",90
same,Herbicidal efficacy against AVEFA,"[9]; dosage 80 g/ha, Table M",100
same,Herbicidal efficacy against POLCO,"[10]; dosage 80 g/ha, Table L",40
same,Herbicidal efficacy against POLCO,"[10]; dosage 320 g/ha, Table L",70
same,Herbicidal efficacy against SETVI,"[11]; dosage 80 g/ha, Table L",100
same,Herbicidal efficacy against SETVI,"[11]; dosage 320 g/ha, Table L",100
same,herbicidal activity SETVI,[11]; dosage 320 g/ha,100%
same,herbicidal activity MATIN,[12]; dosage 320 g/ha,100%
same,herbicidal activity AMARE,[13],100%
same,herbicidal activity ALOMY,[14],100%
same,Herbicidal efficacy against ALOMY,"[14]; dosage 20 g/ha, Table M",60
same,Herbicidal efficacy against ALOMY,"[14]; dosage 80 g/ha, Table M",100
same,herbicidal activity ABUTH,[15],100%
same,Herbicidal activity STEME,[16],100%
same,Herbicidal efficacy against LOLMU,[22]; dosage 80 g/ha,80
same,Herbicidal efficacy against LOLMU,[22]; dosage 320 g/ha,100
same,Herbicidal efficacy against VERPE,[23]; dosage 20 g/ha,100
same,Herbicidal efficacy against VERPE,[23]; dosage 80 g/ha,100
same,Herbicidal efficacy against CYPES,"[17]; dosage 80 g/ha, Table L",100
same,Herbicidal efficacy against CYPES,"[17]; dosage 320 g/ha, Table L",100
same,herbicidal activity CYPES,[17]; dosage 320 g/ha,100%
same,herbicidal activity VIOTR,[18],100%
same,Herbicidal efficacy against VIOTR,"[18]; dosage 20 g/ha, Table M",100
same,Herbicidal efficacy against VIOTR,"[18]; dosage 80 g/ha, Table M",100
same,Herbicidal efficacy against VIOTR,"[19]; dosage 80 g/ha, Table L",100
same,Herbicidal efficacy against VIOTR,"[19]; dosage 320 g/ha, Table L",100
same,herbicidal activity VIOTR,[19]; dosage 320 g/ha,100%
same,herbicidal activity SETVI,[20],100%
same,Herbicidal efficacy against SETVI,"[20]; dosage 20 g/ha, Table M",90
same,Herbicidal efficacy against SETVI,"[20]; dosage 80 g/ha, Table M",100
same,Herbicidal efficacy against MATIN,[24]; dosage 20 g/ha,90
same,Herbicidal efficacy against MATIN,[24]; dosage 80 g/ha,100
same,Herbicidal activity STEME,[21],100%
